Results reported in article PMC8231556, “Inhibiting Endothelial Cell Function in Normal and Tumor Angiogenesis Using BMP Type I Receptor Macrocyclic Kinase Inhibitors” (Cancers, 2021).

Legend:
Test in all cases: radiometric kinase profiling (33 PanQinase)
Assay type in all cases: biochemical
ACVR1B = molecular target: T1, ACVR1B (Homo sapiens, UniProt P36896); details: read-out: Inhibitory effect (%) ACVR1B
T1 construct: purchased Proqinase, Germany
T1 sequence (P36896 24-505): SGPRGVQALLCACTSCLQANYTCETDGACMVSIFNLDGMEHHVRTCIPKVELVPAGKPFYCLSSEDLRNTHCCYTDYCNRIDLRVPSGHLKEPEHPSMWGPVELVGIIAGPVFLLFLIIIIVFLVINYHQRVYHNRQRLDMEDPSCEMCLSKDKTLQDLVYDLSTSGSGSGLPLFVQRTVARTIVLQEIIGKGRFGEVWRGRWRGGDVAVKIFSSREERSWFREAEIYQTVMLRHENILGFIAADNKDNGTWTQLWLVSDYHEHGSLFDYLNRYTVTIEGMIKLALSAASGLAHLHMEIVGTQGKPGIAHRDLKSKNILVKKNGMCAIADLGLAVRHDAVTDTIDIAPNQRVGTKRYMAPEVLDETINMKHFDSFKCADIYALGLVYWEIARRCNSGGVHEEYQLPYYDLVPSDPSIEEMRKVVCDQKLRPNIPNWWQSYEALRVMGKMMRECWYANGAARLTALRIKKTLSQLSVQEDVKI
Summary of the method: (§1)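 Enzyme/substrate mixes were incubated with [γ-33P]-ATP and compound (added as a 0.1 μM solution in 10% DMSO) at 30 °C for 60 min, then stopped with H3PO4 and washed with NaCl. 33P incorporation was scintillation-counted, and residual activity (%) was normalized to untreated control and background.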

CAMK2D = molecular target: T2, CAMK2D (Homo sapiens, UniProt Q13557); details: read-out: Inhibitory effect (%) CAMK2D
T2 construct: purchased Proqinase, Germany
Summary of the method: as §1

CHEK2 = molecular target: T3, CHEK2 (Homo sapiens, UniProt O96017); details: read-out: Inhibitory effect (%) CHEK2
T3 construct: purchased Proqinase, Germany
Summary of the method: as §1

CSNK1A1 = molecular target: T4, CSNK1A1 (Homo sapiens, UniProt P48729); details: read-out: Inhibitory effect (%) CSNK1A1
T4 construct: purchased Proqinase, Germany
Summary of the method: as §1

CSNK2A1 = molecular target: T5, CSNK2A1 (Homo sapiens, UniProt P68400); details: read-out: Inhibitory effect (%) CSNK2A1
T5 construct: purchased Proqinase, Germany
Summary of the method: as §1

EIF2AK1 = molecular target: T6, EIF2AK1 (Homo sapiens, UniProt Q9BQI3); details: read-out: Inhibitory effect (%) EIF2AK1
T6 construct: purchased Proqinase, Germany
Summary of the method: as §1

EPHB4 = molecular target: T7, EPHB4 (Homo sapiens, UniProt P54760); details: read-out: Inhibitory effect (%) EPHB4
T7 construct: purchased ProQinase (33PanQinase Activity Assay)
T7 sequence (P54760 16-987): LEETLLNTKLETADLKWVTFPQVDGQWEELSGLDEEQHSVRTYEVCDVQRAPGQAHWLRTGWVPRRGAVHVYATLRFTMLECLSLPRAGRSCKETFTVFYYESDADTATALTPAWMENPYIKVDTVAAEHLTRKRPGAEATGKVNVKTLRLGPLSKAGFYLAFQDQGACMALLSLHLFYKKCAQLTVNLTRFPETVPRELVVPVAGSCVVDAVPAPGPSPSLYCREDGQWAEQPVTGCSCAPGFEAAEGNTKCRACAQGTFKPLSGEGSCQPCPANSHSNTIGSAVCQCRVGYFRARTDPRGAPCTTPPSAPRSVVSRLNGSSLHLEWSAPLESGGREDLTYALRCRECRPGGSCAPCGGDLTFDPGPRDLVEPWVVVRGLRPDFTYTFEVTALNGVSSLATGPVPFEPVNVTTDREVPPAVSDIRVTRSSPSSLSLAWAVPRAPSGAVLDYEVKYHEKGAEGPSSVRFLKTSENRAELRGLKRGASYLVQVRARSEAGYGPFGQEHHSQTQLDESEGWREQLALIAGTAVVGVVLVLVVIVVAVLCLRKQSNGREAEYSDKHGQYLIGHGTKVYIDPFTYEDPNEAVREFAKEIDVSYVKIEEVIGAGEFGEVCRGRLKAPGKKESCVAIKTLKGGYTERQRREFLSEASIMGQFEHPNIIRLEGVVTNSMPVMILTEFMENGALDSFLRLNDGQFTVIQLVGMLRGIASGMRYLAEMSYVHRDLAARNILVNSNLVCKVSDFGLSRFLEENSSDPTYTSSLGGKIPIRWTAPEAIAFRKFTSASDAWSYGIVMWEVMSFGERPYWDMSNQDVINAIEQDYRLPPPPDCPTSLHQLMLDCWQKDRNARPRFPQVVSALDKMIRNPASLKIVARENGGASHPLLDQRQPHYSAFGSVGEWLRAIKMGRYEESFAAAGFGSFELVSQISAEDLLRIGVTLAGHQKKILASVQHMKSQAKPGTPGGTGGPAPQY
Summary of the method: as §1

MAP2K1 = molecular target: T8, MAP2K1 (Homo sapiens, UniProt Q02750); details: read-out: Inhibitory effect (%) MAP2K1
T8 construct: purchased ProQinase (33PanQinase Activity Assay)
Summary of the method: as §1

NTRK1 = molecular target: T9, NTRK1 (Homo sapiens, UniProt P04629); details: read-out: Inhibitory effect (%) NTRK1
T9 construct: purchased ProQinase (33PanQinase Activity Assay)
Summary of the method: as §1

PTK2 = molecular target: T10, PTK2 (Homo sapiens, UniProt Q05397); details: read-out: Inhibitory effect (%) PTK2
T10 construct: purchased ProQinase (33PanQinase Activity Assay)
Summary of the method: as §1

SRC = molecular target: T11, SRC (Homo sapiens, UniProt P12931); details: read-out: Inhibitory effect (%) SRC
T11 construct: purchased ProQinase (33PanQinase Activity Assay)
Summary of the method: as §1

SRPK1 = molecular target: T12, SRPK1 (Homo sapiens, UniProt Q96SB4); details: read-out: Inhibitory effect (%) SRPK1
T12 construct: purchased ProQinase (33PanQinase Activity Assay)
Summary of the method: as §1

T3 sequence (O96017 whole entry): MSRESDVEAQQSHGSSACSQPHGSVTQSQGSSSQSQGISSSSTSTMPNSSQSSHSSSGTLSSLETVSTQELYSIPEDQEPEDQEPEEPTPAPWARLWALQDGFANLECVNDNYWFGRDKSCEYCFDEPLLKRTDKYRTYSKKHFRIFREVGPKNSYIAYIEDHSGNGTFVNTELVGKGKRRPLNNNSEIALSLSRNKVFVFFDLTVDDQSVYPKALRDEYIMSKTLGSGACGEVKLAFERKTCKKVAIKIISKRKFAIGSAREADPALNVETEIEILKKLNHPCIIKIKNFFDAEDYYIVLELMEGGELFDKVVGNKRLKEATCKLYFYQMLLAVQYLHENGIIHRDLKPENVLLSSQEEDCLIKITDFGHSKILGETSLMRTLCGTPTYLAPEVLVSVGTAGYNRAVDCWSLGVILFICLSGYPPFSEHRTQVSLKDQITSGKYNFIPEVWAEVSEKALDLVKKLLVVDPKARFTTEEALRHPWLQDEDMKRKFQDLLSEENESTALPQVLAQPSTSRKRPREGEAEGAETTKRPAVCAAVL
T5 sequence (P68400 whole entry): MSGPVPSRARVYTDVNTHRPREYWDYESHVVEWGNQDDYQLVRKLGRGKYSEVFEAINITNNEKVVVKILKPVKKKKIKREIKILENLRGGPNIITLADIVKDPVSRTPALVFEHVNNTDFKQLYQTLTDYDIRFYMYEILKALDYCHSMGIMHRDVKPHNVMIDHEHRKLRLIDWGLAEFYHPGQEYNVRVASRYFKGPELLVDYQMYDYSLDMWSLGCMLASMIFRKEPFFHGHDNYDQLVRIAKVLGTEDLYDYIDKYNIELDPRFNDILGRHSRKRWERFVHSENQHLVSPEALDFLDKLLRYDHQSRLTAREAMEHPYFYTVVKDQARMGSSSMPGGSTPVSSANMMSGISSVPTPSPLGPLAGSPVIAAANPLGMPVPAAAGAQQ
T11 sequence (P12931 whole entry): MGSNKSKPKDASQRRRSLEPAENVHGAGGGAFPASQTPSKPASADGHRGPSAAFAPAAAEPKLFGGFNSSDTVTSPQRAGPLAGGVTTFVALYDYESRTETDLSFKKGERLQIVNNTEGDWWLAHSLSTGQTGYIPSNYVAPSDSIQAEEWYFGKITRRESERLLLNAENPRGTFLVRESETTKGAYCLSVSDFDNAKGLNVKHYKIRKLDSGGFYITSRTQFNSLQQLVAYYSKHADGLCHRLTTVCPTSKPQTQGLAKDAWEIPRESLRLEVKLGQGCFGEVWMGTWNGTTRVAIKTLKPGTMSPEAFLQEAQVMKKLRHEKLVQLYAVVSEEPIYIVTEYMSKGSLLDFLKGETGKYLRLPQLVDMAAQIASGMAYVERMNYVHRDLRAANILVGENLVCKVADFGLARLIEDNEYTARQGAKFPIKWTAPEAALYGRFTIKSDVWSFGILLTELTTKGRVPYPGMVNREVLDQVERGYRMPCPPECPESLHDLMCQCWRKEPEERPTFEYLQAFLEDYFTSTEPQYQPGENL
T12 sequence (Q96SB4 whole entry): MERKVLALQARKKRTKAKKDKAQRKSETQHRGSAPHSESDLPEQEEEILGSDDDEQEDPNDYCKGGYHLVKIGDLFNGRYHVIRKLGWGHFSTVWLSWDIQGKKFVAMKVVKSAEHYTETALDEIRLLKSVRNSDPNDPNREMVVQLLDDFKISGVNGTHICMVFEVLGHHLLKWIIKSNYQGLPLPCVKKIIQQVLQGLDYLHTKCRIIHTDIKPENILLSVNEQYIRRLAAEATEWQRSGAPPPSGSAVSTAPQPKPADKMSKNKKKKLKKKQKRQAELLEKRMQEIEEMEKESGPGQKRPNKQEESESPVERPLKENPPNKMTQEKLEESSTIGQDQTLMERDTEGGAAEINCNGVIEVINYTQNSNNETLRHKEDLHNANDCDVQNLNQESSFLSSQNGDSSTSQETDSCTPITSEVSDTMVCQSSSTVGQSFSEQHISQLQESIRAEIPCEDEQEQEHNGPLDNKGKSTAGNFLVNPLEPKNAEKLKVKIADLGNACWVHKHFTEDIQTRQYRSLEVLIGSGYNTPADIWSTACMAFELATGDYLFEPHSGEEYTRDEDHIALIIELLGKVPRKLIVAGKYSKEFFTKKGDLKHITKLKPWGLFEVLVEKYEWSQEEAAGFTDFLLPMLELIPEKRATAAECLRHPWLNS
T8 sequence (Q02750 whole entry): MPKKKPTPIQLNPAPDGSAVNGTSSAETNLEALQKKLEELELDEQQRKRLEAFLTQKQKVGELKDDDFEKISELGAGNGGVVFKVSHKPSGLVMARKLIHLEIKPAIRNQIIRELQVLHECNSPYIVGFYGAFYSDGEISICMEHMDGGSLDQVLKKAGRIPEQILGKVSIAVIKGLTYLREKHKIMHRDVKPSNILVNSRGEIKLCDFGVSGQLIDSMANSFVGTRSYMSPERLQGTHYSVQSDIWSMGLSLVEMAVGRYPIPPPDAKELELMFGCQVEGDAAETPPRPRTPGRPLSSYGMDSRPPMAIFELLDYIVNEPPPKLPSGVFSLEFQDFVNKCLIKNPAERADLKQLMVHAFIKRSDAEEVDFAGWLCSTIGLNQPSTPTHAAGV
T6 sequence (Q9BQI3 whole entry): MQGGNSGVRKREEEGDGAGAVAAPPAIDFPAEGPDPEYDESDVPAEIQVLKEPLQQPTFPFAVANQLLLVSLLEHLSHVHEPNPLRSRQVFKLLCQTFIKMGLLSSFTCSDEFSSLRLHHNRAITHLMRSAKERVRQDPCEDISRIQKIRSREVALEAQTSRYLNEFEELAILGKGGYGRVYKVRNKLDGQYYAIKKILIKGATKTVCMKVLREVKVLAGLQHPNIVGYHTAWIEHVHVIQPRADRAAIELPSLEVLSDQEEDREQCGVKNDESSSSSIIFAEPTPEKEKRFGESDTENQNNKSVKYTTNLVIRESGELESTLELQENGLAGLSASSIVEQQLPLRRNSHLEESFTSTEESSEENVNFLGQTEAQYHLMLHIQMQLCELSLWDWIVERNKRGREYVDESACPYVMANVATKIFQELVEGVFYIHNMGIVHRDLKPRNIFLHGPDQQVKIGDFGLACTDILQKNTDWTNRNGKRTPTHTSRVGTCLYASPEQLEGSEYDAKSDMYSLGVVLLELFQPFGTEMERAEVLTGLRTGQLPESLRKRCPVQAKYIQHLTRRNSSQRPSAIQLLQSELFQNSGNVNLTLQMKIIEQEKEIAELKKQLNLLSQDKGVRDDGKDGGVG
T4 sequence (P48729 whole entry): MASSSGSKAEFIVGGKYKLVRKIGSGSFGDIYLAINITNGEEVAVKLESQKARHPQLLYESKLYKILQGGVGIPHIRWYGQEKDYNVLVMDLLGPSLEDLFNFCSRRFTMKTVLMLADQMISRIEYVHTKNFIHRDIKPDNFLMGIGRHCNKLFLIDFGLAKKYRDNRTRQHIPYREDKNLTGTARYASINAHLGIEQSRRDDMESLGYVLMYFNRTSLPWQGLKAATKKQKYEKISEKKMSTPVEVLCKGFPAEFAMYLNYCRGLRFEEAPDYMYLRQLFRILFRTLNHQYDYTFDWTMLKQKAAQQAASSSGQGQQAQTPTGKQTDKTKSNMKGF
T9 sequence (P04629 33-796): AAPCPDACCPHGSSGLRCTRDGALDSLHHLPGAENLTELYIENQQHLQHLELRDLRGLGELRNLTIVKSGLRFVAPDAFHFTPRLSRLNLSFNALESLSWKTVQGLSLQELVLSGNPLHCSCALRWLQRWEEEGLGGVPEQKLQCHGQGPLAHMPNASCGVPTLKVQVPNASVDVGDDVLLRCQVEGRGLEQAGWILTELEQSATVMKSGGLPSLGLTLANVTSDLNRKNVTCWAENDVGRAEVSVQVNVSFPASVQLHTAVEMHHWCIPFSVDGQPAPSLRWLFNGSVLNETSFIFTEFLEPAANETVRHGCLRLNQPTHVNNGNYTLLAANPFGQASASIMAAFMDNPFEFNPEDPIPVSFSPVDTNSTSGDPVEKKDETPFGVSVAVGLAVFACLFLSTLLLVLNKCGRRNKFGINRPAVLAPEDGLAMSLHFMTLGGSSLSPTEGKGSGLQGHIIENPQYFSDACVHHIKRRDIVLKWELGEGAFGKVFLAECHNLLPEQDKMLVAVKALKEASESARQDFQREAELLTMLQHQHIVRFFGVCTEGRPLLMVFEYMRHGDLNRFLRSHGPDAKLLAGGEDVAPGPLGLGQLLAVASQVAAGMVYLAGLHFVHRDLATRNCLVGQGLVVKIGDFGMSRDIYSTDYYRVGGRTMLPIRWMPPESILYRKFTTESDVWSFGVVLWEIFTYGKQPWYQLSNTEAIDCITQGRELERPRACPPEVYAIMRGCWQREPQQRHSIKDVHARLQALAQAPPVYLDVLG
T2 sequence (Q13557 whole entry): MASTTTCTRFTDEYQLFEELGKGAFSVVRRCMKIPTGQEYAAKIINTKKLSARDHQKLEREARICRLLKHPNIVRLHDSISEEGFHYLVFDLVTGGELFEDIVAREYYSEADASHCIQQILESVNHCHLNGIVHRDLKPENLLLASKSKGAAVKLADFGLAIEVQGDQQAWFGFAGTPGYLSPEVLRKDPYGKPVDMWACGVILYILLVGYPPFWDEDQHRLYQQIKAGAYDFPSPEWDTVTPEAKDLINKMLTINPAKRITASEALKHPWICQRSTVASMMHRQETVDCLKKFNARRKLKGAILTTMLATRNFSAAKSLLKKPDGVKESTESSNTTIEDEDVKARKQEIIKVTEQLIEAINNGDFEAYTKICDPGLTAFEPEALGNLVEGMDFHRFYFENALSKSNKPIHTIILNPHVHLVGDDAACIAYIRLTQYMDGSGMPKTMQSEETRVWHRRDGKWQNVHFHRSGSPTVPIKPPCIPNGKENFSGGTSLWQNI

| SMILES | inhibition at 0.1 µM (ACVR1B) | inhibition at 0.1 µM (CAMK2D) | inhibition at 0.1 µM (CHEK2) | inhibition at 0.1 µM (CSNK1A1) | inhibition at 0.1 µM (CSNK2A1) | inhibition at 0.1 µM (EIF2AK1) | inhibition at 0.1 µM (EPHB4) | inhibition at 0.1 µM (MAP2K1) | inhibition at 0.1 µM (NTRK1) | inhibition at 0.1 µM (PTK2) | inhibition at 0.1 µM (SRC) | inhibition at 0.1 µM (SRPK1) |
| --- | --- | --- | --- | --- | --- | --- | --- | --- | --- | --- | --- | --- |
| c1ccc2c(-c3cnn4cc(-c5ccc(N6CCNCC6)cc5)cnc34)ccnc2c1 [LDN-193189, reference compound] | 23.9% | -13.3% | -0.88% | -3.63% | -10.9% | -16.3% | 4.39% | 11.1% | 14.1% | 4.03% | 2.89% | -16.5% |
| CN1CCc2cccc(c2)Nc2nccc(n2)N2CCCc3cc(ccc32)C1 [OD16] | 7.78% | -3.48% | 7.12% | 0.99% | -9.27% | -7.88% | -36.6% | 5.48% | -37.9% | 17.1% | -19.4% | -24.9% |
| CN1CCC(=O)NCCNc2ccn3ncc(c3n2)-c2cccc(c2)C1 [OD29] | 5.71% | 9.77% | -0.87% | -2.21% | -1.02% | -0.05% | 3.64% | 7.68% | 69.6% | -0.22% | -4.82% | 21.5% |
